Read-outs that look alike come from different tables or passages of the source.
Assays:
Detroit 562 cell line = experiment: Additional in vitro IC50 tests (Table 3); format: cell-based; settings: Homo sapiens
Summary of the method: (§1)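 Cells at 1000/well, viability by CellTiter-Glo luminescence after compound treatment, as % of untreated control. IC50 from variable-slope log(inhibitor) vs response nonlinear regression.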

Fadu cell line = experiment: Additional in vitro IC50 tests (Table 3); format: cell-based; settings: Homo sapiens
Summary of the method: as §1

SCC-25 cell line = experiment: Additional in vitro IC50 tests (Table 3); format: cell-based; settings: Homo sapiens
Summary of the method: as §1

H2228 cell line = experiment: Additional in vitro IC50 tests (Table 3); format: cell-based; settings: Homo sapiens, NCI-H2228
Summary of the method: as §1

EBC-1 cell line = experiment: Additional in vitro IC50 tests (Table 3); format: cell-based; settings: Homo sapiens
Summary of the method: as §1

[1] = system: Panc1 pancreatic cancer cell line; experiment: CellTiter-Glo IC50 (Example 19); format: cell-based; settings: Homo sapiens, PANC-1, 72 h
Summary of the method: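 Cells were seeded at 1000 cells/well and kept at 37 °C, 5% CO2. After compound treatment, viability was read by CellTiter-Glo luminescence as % of untreated control. IC50 came from a non-linear log(inhibitor) vs response fit with variable slope.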

Panc-1 human cell line = experiment: Cytotoxicity on Panc-1, xCELLigence SP, IC50 after 24 h, 48 h, 72 h and 96 h (Example 22)
[2] = system: EBC-1 lung cancer cell line; experiment: High-throughput screening, CellTiter-Glo cell viability assay at 100 nM; format: cell-based, human; settings: Homo sapiens, EBC-1, HTS, compounds at 100 nM, 72 h, read-out: cytotoxicity expressed in IC50, EBC-1 (results of High throughput screening)
[3] = system: H2228 lung cancer cell line; experiment: as above; format: cell-based, human; settings: Homo sapiens, NCI-H2228, HTS, compounds at 100 nM, 72 h, read-out: cytotoxicity expressed in IC50, H2228 (results of High throughput screening)
[4] = system: Capan-1 (pancreas, adenocarcinoma) cells; experiment: Cell viability assay, CellTiter-Glo (Example 21); format: cell-based, human; settings: 72 h treatment
Summary of the method: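 Capan-1 cells were seeded at 1000 cells/well in flat-bottomed white 96 well plates (BRANDplates®), with density optimized for cell size and growth rate. Following compound treatment, viability was measured with the CellTiter-Glo® luminescent assay (Promega) per the manufacturer's instructions, reading luminescence on a BioTek Synergy 2 Multi-Mode Reader.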

[5] = system: FaDu (pharynx, squamous cell carcinoma) cells; experiment: Cell viability assay, CellTiter-Glo (Example 21); format: cell-based, human; settings: 72 h treatment
Summary of the method: (§2)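 Seeding density per line: Panc-1 750, FaDu 1000, Detroit 562 and MDA-MB-453 1500 cells/well. Viability after treatment read by CellTiter-Glo luminescence; dose-response curves fitted by four-parameter variable-slope non-linear regression.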

[6] = system: MDA-MB-453 (breast, carcinoma) cells; experiment: Cell viability assay, CellTiter-Glo (Example 21); format: cell-based, human; settings: 72 h treatment
Summary of the method: as §2

[7] = system: Panc-1 (pancreas, carcinoma) cells; experiment: Cell viability assay, CellTiter-Glo (Example 21); format: cell-based, human; settings: 72 h treatment
Summary of the method: as §2

[8] = system: SCC-25 (tongue, squamous cell carcinoma) cells; experiment: Cell viability assay, CellTiter-Glo (Example 21); format: cell-based, human; settings: 72 h treatment
Summary of the method: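 SCC-25 tongue squamous cell carcinoma cells were seeded at 1000 cells/well in flat-bottomed white 96 well plates, treated with compound, and viability was then determined with the CellTiter-Glo luminescent assay (Promega) following the manufacturer's instructions. Luminescence was read on a BioTek Synergy 2 Multi-Mode Reader.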

[9] = system: DU 145 (prostate, carcinoma) cells; experiment: Cell viability assay, CellTiter-Glo (Example 21); format: cell-based, human; settings: 72 h
Summary of the method: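 DU 145 cancer cell viability was assessed with the CellTiter-Glo® luminescent assay (Promega, Madison, WI, USA), following the manufacturer's instructions. Cells were seeded at 1000 cells/well in flat-bottomed white 96 well plates, and after treatment luminescence was read on a BioTek Synergy 2 Multi-Mode Reader.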

[10] = system: MDA-MB-231 (breast, adenocarcinoma) cells; experiment: Cell viability assay, CellTiter-Glo (Example 21); format: cell-based, human; settings: 72 h treatment
Summary of the method: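 MDA-MB-231 breast adenocarcinoma cells were seeded at 1500 cells/well in flat-bottomed white 96 well plates (BRANDplates®, cat. no.: 781965). Following compound exposure, viability was assessed with the CellTiter-Glo® luminescent assay (Promega) following the manufacturer's protocol, and luminescence was read on a BioTek Synergy 2 Multi-Mode Reader.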

[11] = PANC-1, 72 h, read-out: IC50 (72 h) [nM]
[12] = PANC-1, 96 h, read-out: IC50 (96 h) [nM]

O=C1C2=C(CCN(Cc3cc(F)cc(F)c3)C2)N2CCN=C2N1Cc1ccc(F)cc1 [I/7, 4-(4-Fluorobenzyl)-7-(3,5-difluorobenzyl)-2,4,6,7,8,9-hexahydroimidazo[1,2-a]pyrido[3,4-e]pyrimidin-5(1H)-one]
IC50 (Detroit 562 cell line): 3 nM | IC50 (Fadu cell line): 10 nM | IC50 (SCC-25 cell line): 13 nM | IC50 (H2228 cell line): 10 nM | IC50 (EBC-1 cell line): 9 nM | IC50 [1]: 11 nM | IC50 (Panc-1 human cell line; [11]): 27.3 ± 15.4 nM | IC50 (Panc-1 human cell line; [12]): 22.1 ± 5.98 nM | IC50 [2]: < 100 nM | IC50 [3]: < 100 nM | Capan-1 (pancreas, adenocarcinoma) cell viability (% of control) ([4]; 3.7 nM): 101.9 ± 3.8 % of control | Capan-1 (pancreas, adenocarcinoma) cell viability (% of control) ([4]; 11.1 nM): 46.0 ± 7.5 % of control | Capan-1 (pancreas, adenocarcinoma) cell viability (% of control) ([4]; 100 nM): 36.1 ± 2.8 % of control | Capan-1 (pancreas, adenocarcinoma) cell viability (% of control) ([4]; 300 nM): 35.5 ± 3.3 % of control | FaDu (pharynx, squamous cell carcinoma) cell viability (% of control) ([5]; 3.7 nM): 80.1 ± 13.3 % of control | FaDu (pharynx, squamous cell carcinoma) cell viability (% of control) ([5]; 11.1 nM): 29.1 ± 5.6 % of control | FaDu (pharynx, squamous cell carcinoma) cell viability (% of control) ([5]; 100 nM): 24.0 ± 3.8 % of control | FaDu (pharynx, squamous cell carcinoma) cell viability (% of control) ([5]; 300 nM): 26.1 ± 4.5 % of control | MDA-MB-453 (breast, carcinoma) cell viability (% of control) ([6]; 3.7 nM): 55.8 ± 6.5 % of control | MDA-MB-453 (breast, carcinoma) cell viability (% of control) ([6]; 11.1 nM): 35.8 ± 1.3 % of control | MDA-MB-453 (breast, carcinoma) cell viability (% of control) ([6]; 100 nM): 33.1 ± 1.1 % of control | MDA-MB-453 (breast, carcinoma) cell viability (% of control) ([6]; 300 nM): 31.6 ± 0.9 % of control | Panc-1 (pancreas, carcinoma) cell viability (% of control) ([7]; 3.7 nM): 108.6 ± 7.6 % of control | Panc-1 (pancreas, carcinoma) cell viability (% of control) ([7]; 11.1 nM): 61.1 ± 3.4 % of control | Panc-1 (pancreas, carcinoma) cell viability (% of control) ([7]; 100 nM): 60.0 ± 3.6 % of control | Panc-1 (pancreas, carcinoma) cell viability (% of control) ([7]; 300 nM): 53.5 ± 0.6 % of control | SCC-25 (tongue, squamous cell carcinoma) cell viability (% of control) ([8]; 3.7 nM): 88.7 ± 5.6 % of control | SCC-25 (tongue, squamous cell carcinoma) cell viability (% of control) ([8]; 11.1 nM): 45.1 ± 4.7 % of control | SCC-25 (tongue, squamous cell carcinoma) cell viability (% of control) ([8]; 100 nM): 35.1 ± 2.2 % of control | SCC-25 (tongue, squamous cell carcinoma) cell viability (% of control) ([8]; 300 nM): 39.7 ± 2.7 % of control | DU 145 cell viability ([9]; 3.7 nM): 64.1 ± 8.0 % of control | DU 145 cell viability ([9]; 11.1 nM): 7.5 ± 0.6 % of control | DU 145 cell viability ([9]; 100 nM): 7.2 ± 2.3 % of control | DU 145 cell viability ([9]; 300 nM): 8.5 ± 2.4 % of control | MDA-MB-231 (breast, adenocarcinoma) cell viability (% of control) ([10]; 3.7 nM): 99.6 ± 2.2 % of control | MDA-MB-231 (breast, adenocarcinoma) cell viability (% of control) ([10]; 11.1 nM): 63.6 ± 4.4 % of control | MDA-MB-231 (breast, adenocarcinoma) cell viability (% of control) ([10]; 100 nM): 58.6 ± 3.0 % of control | MDA-MB-231 (breast, adenocarcinoma) cell viability (% of control) ([10]; 300 nM): 59.4 ± 3.0 % of control

[N-]=[N+]=Nc1ccc(CN2C(=O)C3=C(CCN(Cc4cc(F)cc(F)c4)C3)N3CCN=C23)cc1 [I/107, 4-(4-Azidobenzyl)-7-(3,5-difluorobenzyl)-2,4,6,7,8,9-hexahydroimidazo[1,2-a]pyrido[3,4-e]pyrimidin-5(1H)-one]
IC50 (Detroit 562 cell line): 7 nM | IC50 (Fadu cell line): 19 nM | IC50 (SCC-25 cell line): 31 nM | IC50 (H2228 cell line): 24 nM | IC50 (EBC-1 cell line): 17 nM | IC50 [1]: 14 nM | IC50 (Panc-1 human cell line; [11]): 102 ± 24.4 nM | IC50 (Panc-1 human cell line; [12]): 49.6 ± 17 nM | IC50 [2]: < 100 nM | IC50 [3]: < 100 nM | Capan-1 (pancreas, adenocarcinoma) cell viability (% of control) ([4]; 3.7 nM): 103.5 ± 3.0 % of control | Capan-1 (pancreas, adenocarcinoma) cell viability (% of control) ([4]; 11.1 nM): 101.2 ± 5.2 % of control | Capan-1 (pancreas, adenocarcinoma) cell viability (% of control) ([4]; 100 nM): 37.6 ± 2.3 % of control | Capan-1 (pancreas, adenocarcinoma) cell viability (% of control) ([4]; 300 nM): 34.7 ± 2.9 % of control | FaDu (pharynx, squamous cell carcinoma) cell viability (% of control) ([5]; 3.7 nM): 98.6 ± 1.9 % of control | FaDu (pharynx, squamous cell carcinoma) cell viability (% of control) ([5]; 11.1 nM): 74.3 ± 4.2 % of control | FaDu (pharynx, squamous cell carcinoma) cell viability (% of control) ([5]; 100 nM): 24.6 ± 3.6 % of control | FaDu (pharynx, squamous cell carcinoma) cell viability (% of control) ([5]; 300 nM): 25.5 ± 4.3 % of control | MDA-MB-453 (breast, carcinoma) cell viability (% of control) ([6]; 3.7 nM): 107.2 ± 9.1 % of control | MDA-MB-453 (breast, carcinoma) cell viability (% of control) ([6]; 11.1 nM): 47.8 ± 6.2 % of control | MDA-MB-453 (breast, carcinoma) cell viability (% of control) ([6]; 100 nM): 32.3 ± 1.3 % of control | MDA-MB-453 (breast, carcinoma) cell viability (% of control) ([6]; 300 nM): 32.2 ± 1.3 % of control | Panc-1 (pancreas, carcinoma) cell viability (% of control) ([7]; 3.7 nM): 107.9 ± 11.5 % of control | Panc-1 (pancreas, carcinoma) cell viability (% of control) ([7]; 11.1 nM): 93.6 ± 8.1 % of control | Panc-1 (pancreas, carcinoma) cell viability (% of control) ([7]; 100 nM): 54.2 ± 0.6 % of control | Panc-1 (pancreas, carcinoma) cell viability (% of control) ([7]; 300 nM): 55.0 ± 3.2 % of control | SCC-25 (tongue, squamous cell carcinoma) cell viability (% of control) ([8]; 3.7 nM): 97.3 ± 3.8 % of control | SCC-25 (tongue, squamous cell carcinoma) cell viability (% of control) ([8]; 11.1 nM): 75.6 ± 6.8 % of control | SCC-25 (tongue, squamous cell carcinoma) cell viability (% of control) ([8]; 100 nM): 35.4 ± 5.7 % of control | SCC-25 (tongue, squamous cell carcinoma) cell viability (% of control) ([8]; 300 nM): 42.4 ± 5.7 % of control | DU 145 cell viability ([9]; 3.7 nM): 101.2 ± 6.5 % of control | DU 145 cell viability ([9]; 11.1 nM): 48.7 ± 1.7 % of control | DU 145 cell viability ([9]; 100 nM): 8.3 ± 2.9 % of control | DU 145 cell viability ([9]; 300 nM): 9.0 ± 2.9 % of control | MDA-MB-231 (breast, adenocarcinoma) cell viability (% of control) ([10]; 3.7 nM): 102.1 ± 3.5 % of control | MDA-MB-231 (breast, adenocarcinoma) cell viability (% of control) ([10]; 11.1 nM): 98.6 ± 0.8 % of control | MDA-MB-231 (breast, adenocarcinoma) cell viability (% of control) ([10]; 100 nM): 57.3 ± 1.8 % of control | MDA-MB-231 (breast, adenocarcinoma) cell viability (% of control) ([10]; 300 nM): 55.7 ± 0.9 % of control

Source: US20230295162A1 (EÖTVÖS LORÁND TUDOMÁNYEGYETEM, priority 2020, published 2023)
